The values below come from US20240425523A1, “Compounds for the Degradation of EGFR Kinase” (Beigene Switzerland GMBH, priority 2023, published 2024).

What all share (assay type): cell-based
In test [1] the target is T1, EGFR L858R (BaF3-L858R cells) (Homo sapiens, UniProt P00533, L858R).
T1 construct: host or cells: BaF3
Description: Cell degradation of EGFR, HTRF assay, BaF3-L858R cells. The settings on record: 16 h treatment; for DC50: EGFR degradation; for Dmax: maximum percentage of degradation. An outline of the steps:
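BaF3-L858R cells treated 16 h at 37° C, 5% CO2 with compound (top 10 uM final, 5-fold, 8 doses, 0.1% DMSO). DC50 from four-parameter fit; Dmax is maximum percent degradation.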
A general note: TR-FRET usually uses a lanthanide donor and a delayed reading to cut background.

The target of test [2] is T2, EGFR-L858R/C797S (H1975-clone #8 cells) (Homo sapiens, UniProt P00533, C797S/L858R).
T2 construct: expressed in transfected cells; host or cells: H1975 (endogenous EGFR knocked out, clone #8)
Description: Cell degradation of EGFR, HTRF assay, H1975-clone#8 (L858R/C797S) cells. The settings on record: 16 h treatment; for DC50: EGFR degradation; for Dmax: maximum percentage of degradation.

Test [3] has as its target T3, p-EGFR L858R (BaF3-L858R cells) (Homo sapiens, UniProt P00533, L858R).
T3 construct: host or cells: BaF3
Description: Cell p-EGFR inhibition assay, HTRF, BaF3-L858R cells. Particulars: 16 h treatment; for Imax (%): maximum percentage of pEGFR inhibition; for IC50: pEGFR inhibition. An outline of the steps:
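BaF3-L858R cells treated 16 h at 37 °C, 5% CO2 with compound from 10 uM top, 5-fold dilutions, 8 doses, in 0.1% DMSO medium. Lysates read overnight by HTRF p-EGFR antibodies; IC50 fitted to four-parameter curve against DMSO high control.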

The target of test [4] is p-EGFR Del19/C797S (H1975-clone #23 cells) (Homo sapiens, UniProt P00533). Description: Cell p-EGFR inhibition assay, HTRF, H1975-clone#23 (DEL19/C797S) cells. Particulars: 16 h treatment; for Imax (%): maximum percentage of pEGFR inhibition; for IC50: pEGFR inhibition. An outline of the steps: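 Phospho-EGFR read by overnight HTRF on lysates, normalized to DMSO-treated high control; IC50, Hill slope and Imax fitted. Compounds were applied for 16 h (10 uM top, 5-fold steps, 8 doses) to an H1975 single clone carrying only exogenous Del19/C797S EGFR after sgRNA knockout of endogenous copies.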

In test [1], `Cc1cc2cc(n1)-c1cnn(C)c1OC[C@H]1CCC(C1)CN1/C(=N/C2=O)Nc2ccc(N3CC(N(C)C4CCN(c5cc(F)c([C@H]6CCC(=O)NC6=O)c(F)c5)CC4)C3)cc21` [Example 124, (R)-3-(4-(4-((1-((7^1R,7^3S,E)-1^1,2^6-dimethyl-3-oxo-5^2,5^3-dihydro-1^1H,5^1H-9-oxa-4-aza-5(2,1)-benzo[d]imidazola-2(2,4)-pyridina-1(4,5)-pyrazola-7(1,3)-cyclopentanacyclononaphane-5^6-yl)azetidin-3-yl)(methyl)amino)piperidin-1-yl)-2,6-difluorophenyl)piperidine-2,6-dione] yielded a DC50 of 3.58 nM and a Dmax of 71.1%. In test [2], the DC50 came to 2.3 nM and the Dmax came to 67.5%. Further, in test [3], the “Imax (%)” value came out at 94.6% and the IC50 came to 17.1 nM. Also, in test [4], the “Imax (%)” value stood at 99.6% and the midpoint of inhibition, the IC50, lay at 0.9 nM.

On to `Cc1cc2cc(n1)-c1c(C)nn(C)c1OC[C@H]1CCC(C1)CN1/C(=N/C2=O)Nc2ccc(N3CCN(C4CCN(c5cc(F)c([C@H]6CCC(=O)NC6=O)c(F)c5)CC4)[C@@H](C)C3)cc21` [Example 135, (R)-3-(2,6-difluoro-4-(4-((S)-2-methyl-4-((7^1R,7^3S,E)-1^1,1^3,2^6-trimethyl-3-oxo-5^2,5^3-dihydro-1^1H,5^1H-9-oxa-4-aza-5(2,1)-benzo[d]imidazola-2(2,4)-pyridina-1(4,5)-pyrazola-7(1,3)-cyclopentanacyclononaphane-5^6-yl)piperazin-1-yl)piperidin-1-yl)phenyl)piperidine-2,6-dione], for which, in test [1], it took 3.08 nM to reach half-maximal degradation (DC50) and the Dmax stood at 89.1%. Also, in test [2], half-maximal degradation (DC50) was put at 1.91 nM and the Dmax turned out to be 86.9%. For the same molecule, in test [3], the “Imax (%)” value was 104.33% and the IC50 came out at 2.32 nM. Moreover, in test [4], the “Imax (%)” value is 104.78% and half-maximal inhibition (IC50) was put at 1.4 nM.

As for `Cc1cc2cc(n1)-c1cnn(C)c1OC[C@H]1CC[C@H](C1)CN1/C(=N/C2=O)Nc2ccc(N3CCN(C4CCN(c5ccc(OC6CCC(=O)NC6=O)nc5C)CC4)CC3)cc21` (stereo partly drawn) [Example 137, 3-((5-(4-(4-((7^1R,7^3S,E)-1^1,2^6-dimethyl-3-oxo-5^2,5^3-dihydro-1^1H,5^1H-9-oxa-4-aza-5(2,1)-benzo[d]imidazola-2(2,4)-pyridina-1(4,5)-pyrazola-7(1,3)-cyclopentanacyclononaphane-5^6-yl)piperazin-1-yl)piperidin-1-yl)-6-methylpyridin-2-yl)oxy)piperidine-2,6-dione], the DC50 was 2.37 nM in test [1] and 3.35 nM in test [2]. Besides, the results for the Dmax in test [1] and in test [2] were 83.3% and 78.2%, respectively. For the same molecule, the “Imax (%)” value in test [3] is on record as 96.47%; in test [4], 98.8%. Further, the IC50 in test [3] turned out to be 14.6 nM; in test [4], 0.528 nM.

As for `COC[C@@H]1CN(c2ccc3c(c2)N2C[C@@H]4CC[C@H](COc5c(cnn5C)-c5cc(cc(C)n5)C(=O)/N=C/2N3)C4)CCN1CC1CN(c2ccc3c(c2)C(=O)N(C2CCC(=O)NC2=O)C3=O)C1` (stereo partly drawn) [Example 69, 5-(3-(((S)-4-((7^1R,7^3S,E)-1^1,2^6-dimethyl-3-oxo-5^2,5^3-dihydro-1^1H,5^1H-9-oxa-4-aza-5(2,1)-benzo[d]imidazola-2(2,4)-pyridina-1(4,5)-pyrazola-7(1,3)-cyclopentanacyclononaphane-5^6-yl)-2-(methoxymethyl)piperazin-1-yl)methyl)azetidin-1-yl)-2-(2,6-dioxopiperidin-3-yl)isoindoline-1,3-dione], the DC50 in test [1] was determined as 3.2 nM; in test [2], 5.24 nM. Besides, the figures for the Dmax in test [1] and in test [2] were 89.3% and 62.4%, respectively. In addition, the “Imax (%)” value was found to be 99.9% in test [3] and 100.1% in test [4]. The IC50 in test [3] came to 5.7 nM; in test [4], 1.8 nM.

As to `Cc1cc2cc(n1)-c1cnn(C)c1OC[C@H]1CCC(C1)CN1/C(=N/C2=O)Nc2ccc(N3CCC4(CC3)CN(C3CCN(c5cc(F)c([C@H]6CCC(=O)NC6=O)c(F)c5)CC3)C4)cc21` [Example 120, (R)-3-(4-(4-(7-((7^1R,7^3S,E)-1^1,2^6-dimethyl-3-oxo-5^2,5^3-dihydro-1^1H,5^1H-9-oxa-4-aza-5(2,1)-benzo[d]imidazola-2(2,4)-pyridina-1(4,5)-pyrazola-7(1,3)-cyclopentanacyclononaphane-5^6-yl)-2,7-diazaspiro[3.5]nonan-2-yl)piperidin-1-yl)-2,6-difluorophenyl)piperidine-2,6-dione], in test [1], half-maximal degradation (DC50) was put at 3.14 nM and the Dmax stood at 70.8%. In test [2], this molecule came in with a DC50 of 0.55 nM and a Dmax of 65.7%. In addition, in test [3], the “Imax (%)” value is recorded as 94.2% and the IC50 was found to be 15.6 nM. Further, in test [4], the “Imax (%)” value is reported as 99.1% and the IC50 is 1.1 nM.

In test [1], `Cc1cc2cc(n1)-c1cnn(C)c1OC[C@H]1CCC(C1)CN1/C(=N/C2=O)Nc2ccc(N3CC4(CCN(C5CN(c6cc(F)c([C@H]7CCC(=O)NC7=O)c(F)c6)C5)CC4)C3)cc21` [Example 126, (R)-3-(4-(3-(2-((7^1R,7^3S,E)-1^1,2^6-dimethyl-3-oxo-5^2,5^3-dihydro-1^1H,5^1H-9-oxa-4-aza-5(2,1)-benzo[d]imidazola-2(2,4)-pyridina-1(4,5)-pyrazola-7(1,3)-cyclopentanacyclononaphane-5^6-yl)-2,7-diazaspiro[3.5]nonan-7-yl)azetidin-1-yl)-2,6-difluorophenyl)piperidine-2,6-dione] came in with a DC50 of 2.04 nM and a Dmax of 83.3%. In test [2], this molecule yielded a DC50 of 1.49 nM and a Dmax of 73.7%. Further, in test [3], the “Imax (%)” value worked out at 99.16% and the IC50 came out at 13.3 nM. Besides, in test [4], the “Imax (%)” value is listed as 102.92% and the IC50 amounted to 1.44 nM.

For the molecule `COC[C@@H]1CN(c2ccc3c(c2)N2CC4CC[C@H](COc5c(cnn5C)-c5cc(cc(C)n5)C(=O)/N=C/2N3)C4)CCN1C1CCN(c2ccc(C3CCC(=O)NC3=O)nc2C)CC1` (stereo partly drawn) [Example 73, 3-(5-(4-((S)-4-((7^1R,7^3S,E)-1^1,2^6-dimethyl-3-oxo-5^2,5^3-dihydro-1^1H,5^1H-9-oxa-4-aza-5(2,1)-benzo[d]imidazola-2(2,4)-pyridina-1(4,5)-pyrazola-7(1,3)-cyclopentanacyclononaphane-5^6-yl)-2-(methoxymethyl)piperazin-1-yl)piperidin-1-yl)-6-methylpyridin-2-yl)piperidine-2,6-dione], in test [1], the DC50 is 2.02 nM and the Dmax was 87.2%. Further, in test [2], it took 2.24 nM to reach half-maximal degradation (DC50) and the Dmax is 78.4%. Also, in test [3], the “Imax (%)” value was determined as 93.5% and the IC50 worked out at 10.2 nM. Also, in test [4], the “Imax (%)” value is 101.1% and the IC50 is 1 nM.

With `Cc1cc2cc(n1)-c1cnn(C)c1OC[C@H]1CC[C@H](C1)CN1/C(=N/C2=O)Nc2ccc(N3CCN(C4CCN(c5ccc([C@H]6CCC(=O)NC6=O)nc5C)CC4)[C@H](C)C3)cc21` [Example 162, 3-(5-(4-((R)-4-((7^1R,7^3S,E)-1^1,2^6-dimethyl-3-oxo-5^2,5^3-dihydro-1^1H,5^1H-9-oxa-4-aza-5(2,1)-benzo[d]imidazola-2(2,4)-pyridina-1(4,5)-pyrazola-7(1,3)-cyclopentanacyclononaphane-5^6-yl)-2-methylpiperazin-1-yl)piperidin-1-yl)-6-methylpyridin-2-yl)piperidine-2,6-dione], in test [1], the DC50 is 4.86 nM and the Dmax is 88.6%. In test [2], this molecule yielded a DC50 of 3.14 nM and a Dmax of 85.4%. For the same molecule, in test [3], the “Imax (%)” value came out at 93.37% and 3.68 nM corresponded to half-maximal inhibition (IC50). Moreover, in test [4], the “Imax (%)” value stood at 95.16% and half-maximal inhibition (IC50) required 0.21 nM.

In test [1], `COC[C@H]1CN(c2ccc3c(c2)N2C[C@@H]4CC[C@H](COc5c(c(C)nn5C)-c5cc(cc(C)n5)C(=O)/N=C/2N3)C4)CCN1C1CCN(c2ccc(NC3CCC(=O)NC3=O)cc2C)CC1` (stereo partly drawn) [Example 207, 3-((4-(4-((R)-2-(methoxymethyl)-4-((7R,7^3S,E)-1^1,1^3,2^6-trimethyl-3-oxo-5^2,5^3-dihydro-1^1H,5^1H-9-oxa-4-aza-5(2,1)-benzo[d]imidazola-2(2,4)-pyridina-1(4,5)-pyrazola-7(1,3)-cyclopentanacyclononaphane-5^6-yl)piperazin-1-yl)piperidin-1-yl)-3-methylphenyl)amino)piperidine-2,6-dione] returned a half-maximal degradation concentration (DC50) of 1.04 nM and a Dmax of 91.9%. In test [2], this molecule had a 50% degradation concentration (DC50) of 1.7 nM and a Dmax of 87.5%. In test [3], the “Imax (%)” value stood at 88.5% and the IC50 was 1.5 nM. Also, in test [4], the “Imax (%)” value came to 100.67% and the IC50 is 1.4 nM.

By DC50 is commonly meant the midpoint of the concentration-degradation curve. A word on the Dmax: it is the greatest extent of degradation seen. A lower Dmax goes with shallow degradation. As usually defined, the IC50 is the concentration that gives 50% inhibition. A higher IC50 goes with lower potency.
